Experimental data: paper PMC9638991, “Designed High-Redox Potential Laccases Exhibit High Functional Diversity” (ACS Catalysis, 2022)

Legend:
Assay in all cases: colorimetric oxidation kinetics, purified enzyme
Format in all cases: biochemical
[1] = biological target: T1, Th3 (Trametes hirsuta, UniProt B2L9C1, F286M/A414S, form not given); settings: optimal pH 5; O2 as co-substrate
T1 construct: gene Lac

[2] = biological target: T2, Th3 (Trametes hirsuta, UniProt B2L9C1, N227E/S448D, form not given); settings: optimal pH, O2 as co-substrate
T2 construct: gene Lac; secreted from S. cerevisiae (pJRoC30), purified fraction, about 56 kDa; wild type not expressible

[3] = biological target: T3, Th3 (Trametes hirsuta, UniProt B2L9C1); settings: optimal pH 4, O2 as co-substrate
T3 construct: gene Lac; secreted from S. cerevisiae (pJRoC30), purified fraction, about 56 kDa; wild type not expressible

[4] = biological target: T4, OB-1 (basidiomycete PM1, UniProt Q12571); settings: optimal pH; O2 as co-substrate
T4 construct: S. cerevisiae expression, purified

[5] = biological target: T5, Th3 (Trametes hirsuta, UniProt B2L9C1, N227H/F478W, form not given); settings: optimal pH; O2 as co-substrate
T5 construct: gene Lac; secreted from S. cerevisiae (pJRoC30), purified fraction, about 56 kDa; wild type not expressible

[6] = text prints 'for Th3.7' inside a sentence on Th3.10 (apparent misprint, check Table S4)

T4 sequence (Q12571 entry or part of it): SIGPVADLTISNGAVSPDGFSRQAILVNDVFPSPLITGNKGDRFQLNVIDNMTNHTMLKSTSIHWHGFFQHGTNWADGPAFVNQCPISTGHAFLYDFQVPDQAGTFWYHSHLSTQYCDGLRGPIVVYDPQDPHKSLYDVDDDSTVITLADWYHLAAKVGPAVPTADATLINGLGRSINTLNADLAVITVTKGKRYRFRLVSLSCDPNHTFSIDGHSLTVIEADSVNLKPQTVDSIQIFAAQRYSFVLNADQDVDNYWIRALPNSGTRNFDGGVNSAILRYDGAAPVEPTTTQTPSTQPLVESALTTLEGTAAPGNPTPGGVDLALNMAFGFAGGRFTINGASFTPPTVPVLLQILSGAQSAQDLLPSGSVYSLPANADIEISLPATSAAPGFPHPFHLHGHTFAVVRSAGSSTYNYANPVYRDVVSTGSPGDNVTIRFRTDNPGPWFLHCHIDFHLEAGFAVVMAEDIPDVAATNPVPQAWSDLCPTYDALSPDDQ
T2 sequence (B2L9C1 entry or part of it N227E/S448D, form open): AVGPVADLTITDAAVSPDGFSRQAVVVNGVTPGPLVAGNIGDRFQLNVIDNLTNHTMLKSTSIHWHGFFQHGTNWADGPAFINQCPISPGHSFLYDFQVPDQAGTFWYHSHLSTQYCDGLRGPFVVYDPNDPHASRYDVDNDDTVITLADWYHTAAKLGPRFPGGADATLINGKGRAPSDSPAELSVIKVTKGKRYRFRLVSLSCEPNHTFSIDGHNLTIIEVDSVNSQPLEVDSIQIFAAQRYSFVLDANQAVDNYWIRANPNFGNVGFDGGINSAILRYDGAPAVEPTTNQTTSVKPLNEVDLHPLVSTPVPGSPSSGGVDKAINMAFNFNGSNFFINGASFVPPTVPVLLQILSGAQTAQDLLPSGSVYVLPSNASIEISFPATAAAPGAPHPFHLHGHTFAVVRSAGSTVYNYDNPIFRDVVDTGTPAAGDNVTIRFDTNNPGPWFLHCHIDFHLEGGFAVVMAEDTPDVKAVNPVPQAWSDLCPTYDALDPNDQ
T5 sequence (B2L9C1 entry or part of it N227H/F478W, form open): as the sequence (B2L9C1 entry or part of it N227E/S448D, form open) above, with E206H, D427S, F457W counted along it
T3 sequence (B2L9C1 entry or part of it): as the sequence (B2L9C1 entry or part of it N227E/S448D, form open) above, with E206N, D427S counted along it
T1 sequence (B2L9C1 entry or part of it F286M/A414S, form open): as the sequence (B2L9C1 entry or part of it N227E/S448D, form open) above, with E206N, F265M, A393S, D427S counted along it

Row | Structure (SMILES) | Km [1] [µM] | Km [2] [µM] | Km [3] [µM] | Km [4] [µM] | Km [2, 6] [µM] | Km [5] [µM] | Km ([3]; purified fraction, values estimates) [µM]
1 | COc1ccccc1O [GUA, guaiacol] | 555 ± 85 | 667 ± 36 | 1790 ± 160 | 1070 ± 30 | – | – | –
2 | COc1cc(/C=C/C(=O)O)cc(OC)c1O [SA, sinapic acid] | – | – | – | 81 ± 15 | 150 | 185 | –
3 | COc1cccc(OC)c1O [DMP, 2,6-dimethoxyphenol] | – | – | – | 165 ± 2 | 17.1 | 44 | 1280
